Key:
[1] = system: salmonella typhimurium TA100; test: Salmonella mutagenicity test, TA100; type: cell-based
Protocol: (§1) Methods for detecting carcinogens and mutagens with the salmonellia mutagenicity test are highly efficient in detecting carcinogens and mutagens. Major carcinogens tested have been detected as mutagens. Salmonella mutagenicity assay is very sensitive and simply test for detecting mutagens and carcinogens.
(§2) Mutagenicity assays were carried out at least in triplicate.

[2] = Metabolism (organ and blood radioactivity) of [^3H]-HHT in P388 mice; type: in vivo
Protocol: Animals: Adult DBA/2J male mice, 6 to 8 weeks old. All animals weighed approximately 25 g when used in experiments. Each member of which received identical dosed (i.p.) of HHT. Tumor: P388 leukemic cells induced in mice by inoculation with L1210 or P388 leukemic cells (1.0×10^5). After P388 induced in mice 5 days, 1 mg/kg of [^3H]-HHT (100 μC/mg) was injected to mice. […] Mice were killed at 1, 3, 6 and 24 hours after injection of [^3H]-HHT. The key data of HHT in metabolism process are determined counts per minute (CPM) of [^3H]-HHT in organs. CPM is determined by liquid scintillation counting (LSC). The methods of LSC combined with radioactive of [^3H]-HHT can be determined using a tracer of HHT in organs. After killed animals, organs and blood were obtained from P388 mice. […] Other processes are similar to the standard method.

[3] = system: salmonella typhimurium TA98; test: Salmonella mutagenicity test, TA98; type: cell-based
Protocol: as §1, §2

[4] = system: salmonella typhimurium TA97; test: Salmonella mutagenicity test, TA97; type: cell-based
Protocol: as §1, §2

[5] = dog, in vivo
Text: Twenty normal adult dogs which weight approximately 10 kg[…] used in experiments.
Most deaths were caused by cardiac dysfunction.

In the case of `COC(=O)C[C@](O)(CCCC(C)(C)O)C(=O)O[C@@H]1C(OC)=C[C@]23CCCN2CCc2cc4c(cc2[C@H]13)OCO4` [HHT, Homoharringtonine], the “Number of His^+revertants/plate” value ([1]; TA100 +S, 0.1 μg/plate) is reported as 158 revertants/plate, the “Number of His^+revertants/plate” value ([1]; TA100 +S, 1 μg/plate) is reported as 152 revertants/plate and the “Number of His^+revertants/plate” value ([1]; TA100 +S, 10 μg/plate) is reported as 165 revertants/plate. For the same compound, the “Number of His^+revertants/plate” value ([1]; TA100 +S, 100 μg/plate) was 160 revertants/plate, the “Number of His^+revertants/plate” value ([1]; TA100 −S, 0.1 μg/plate) was 148 ± 12 revertants/plate and the “Number of His^+revertants/plate” value ([1]; TA100 −S, 1 μg/plate) was 140 ± 13 revertants/plate. The “Number of His^+revertants/plate” value ([1]; TA100 −S, 10 μg/plate) was 162 ± 17 revertants/plate, the “Number of His^+revertants/plate” value ([1]; TA100 −S, 100 μg/plate) was 158 ± 15 revertants/plate and the “CPM of [^3H]-HHT, Bone” value ([2]; 1 hour after 1 mg/kg i.p.) was 500 CMP/mg organ. The “CPM of [^3H]-HHT, Brain” value ([2]; 1 hour after 1 mg/kg i.p.) was 499 CMP/mg organ, the “CPM of [^3H]-HHT, Contents of intestine” value ([2]; 1 hour after 1 mg/kg i.p.) was 3323 CMP/mg organ and the “CPM of [^3H]-HHT, Contents of stomach” value ([2]; 1 hour after 1 mg/kg i.p.) was 6821 CMP/mg organ. The “CPM of [^3H]-HHT, Heart” value ([2]; 1 hour after 1 mg/kg i.p.) was 1403 CMP/mg organ, the “CPM of [^3H]-HHT, Intestine” value ([2]; 1 hour after 1 mg/kg i.p.) was 1638 CMP/mg organ and the “CPM of [^3H]-HHT, Kidney” value ([2]; 1 hour after 1 mg/kg i.p.) was 6501 CMP/mg organ. The “CPM of [^3H]-HHT, Liver” value ([2]; 1 hour after 1 mg/kg i.p.) was 4145 CMP/mg organ, the “CPM of [^3H]-HHT, Lung” value ([2]; 1 hour after 1 mg/kg i.p.) was 2100 CMP/mg organ and the “CPM of [^3H]-HHT, Spleen” value ([2]; 1 hour after 1 mg/kg i.p.) was 2828 CMP/mg organ. For the same compound, the “CPM of [^3H]-HHT, Stomach” value ([2]; 1 hour after 1 mg/kg i.p.) was 1626 CMP/mg organ, the “CPM of [^3H]-HHT, Bone” value ([2]; 3 hours after 1 mg/kg i.p.) was 560 CMP/mg organ and the “CPM of [^3H]-HHT, Brain” value ([2]; 3 hours after 1 mg/kg i.p.) was 646 CMP/mg organ. For the same compound, the “CPM of [^3H]-HHT, Contents of intestine” value ([2]; 3 hours after 1 mg/kg i.p.) was 7215 CMP/mg organ, the “CPM of [^3H]-HHT, Contents of stomach” value ([2]; 3 hours after 1 mg/kg i.p.) was 84375 CMP/mg organ and the “CPM of [^3H]-HHT, Heart” value ([2]; 3 hours after 1 mg/kg i.p.) was 1800 CMP/mg organ. The “CPM of [^3H]-HHT, Intestine” value ([2]; 3 hours after 1 mg/kg i.p.) was 3288 CMP/mg organ, the “CPM of [^3H]-HHT, Kidney” value ([2]; 3 hours after 1 mg/kg i.p.) was 3121 CMP/mg organ and the “CPM of [^3H]-HHT, Liver” value ([2]; 3 hours after 1 mg/kg i.p.) was 6718 CMP/mg organ. The “CPM of [^3H]-HHT, Lung” value ([2]; 3 hours after 1 mg/kg i.p.) was 2427 CMP/mg organ, the “CPM of [^3H]-HHT, Spleen” value ([2]; 3 hours after 1 mg/kg i.p.) was 2426 CMP/mg organ and the “CPM of [^3H]-HHT, Stomach” value ([2]; 3 hours after 1 mg/kg i.p.) was 2321 CMP/mg organ. The “CPM of [^3H]-HHT, Bone” value ([2]; 6 hours after 1 mg/kg i.p.) was 505 CMP/mg organ, the “CPM of [^3H]-HHT, Brain” value ([2]; 6 hours after 1 mg/kg i.p.) was 793 CMP/mg organ and the “CPM of [^3H]-HHT, Contents of intestine” value ([2]; 6 hours after 1 mg/kg i.p.) was 6250 CMP/mg organ. For the same compound, the “CPM of [^3H]-HHT, Contents of stomach” value ([2]; 6 hours after 1 mg/kg i.p.) was 100719 CMP/mg organ, the “CPM of [^3H]-HHT, Heart” value ([2]; 6 hours after 1 mg/kg i.p.) was 1193 CMP/mg organ and the “CPM of [^3H]-HHT, Intestine” value ([2]; 6 hours after 1 mg/kg i.p.) was 2475 CMP/mg organ. The “CPM of [^3H]-HHT, Kidney” value ([2]; 6 hours after 1 mg/kg i.p.) was 3501 CMP/mg organ, the “CPM of [^3H]-HHT, Liver” value ([2]; 6 hours after 1 mg/kg i.p.) was 4109 CMP/mg organ and the “CPM of [^3H]-HHT, Lung” value ([2]; 6 hours after 1 mg/kg i.p.) was 1788 CMP/mg organ. The “CPM of [^3H]-HHT, Spleen” value ([2]; 6 hours after 1 mg/kg i.p.) was 2198 CMP/mg organ, the “CPM of [^3H]-HHT, Stomach” value ([2]; 6 hours after 1 mg/kg i.p.) was 3703 CMP/mg organ and the “Number of His^+revertants/plate” value ([3]; TA98 +S, 0.1 μg/plate) was 34 ± 4 revertants/plate. For the same compound, the “Number of His^+revertants/plate” value ([3]; TA98 +S, 1 μg/plate) was 32 ± 4 revertants/plate, the “Number of His^+revertants/plate” value ([3]; TA98 +S, 10 μg/plate) was 36 ± 3 revertants/plate and the “Number of His^+revertants/plate” value ([3]; TA98 +S, 100 μg/plate) was 34 ± 4 revertants/plate. The “Number of His^+revertants/plate” value ([3]; TA98 −S, 0.1 μg/plate) was 29 ± 3 revertants/plate, the “Number of His^+revertants/plate” value ([3]; TA98 −S, 1 μg/plate) was 30 ± 3 revertants/plate and the “Number of His^+revertants/plate” value ([3]; TA98 −S, 10 μg/plate) was 38 ± 4 revertants/plate. For the same compound, the “Number of His^+revertants/plate” value ([3]; TA98 −S, 100 μg/plate) was 32 ± 4 revertants/plate, the “Number of His^+revertants/plate” value ([4]; TA97 +S, 0.1 μg/plate) was 145 ± 14 revertants/plate and the “Number of His^+revertants/plate” value ([4]; TA97 +S, 1 μg/plate) was 150 ± 14 revertants/plate. For the same compound, the “Number of His^+revertants/plate” value ([4]; TA97 +S, 10 μg/plate) was 165 ± 16 revertants/plate, the “Number of His^+revertants/plate” value ([4]; TA97 +S, 100 μg/plate) was 160 ± 17 revertants/plate and the “Number of His^+revertants/plate” value ([4]; TA97 −S, 0.1 μg/plate) was 120 ± 10 revertants/plate. The “Number of His^+revertants/plate” value ([4]; TA97 −S, 1 μg/plate) was 130 ± 11 revertants/plate, the “Number of His^+revertants/plate” value ([4]; TA97 −S, 10 μg/plate) was 160 ± 16 revertants/plate and the “Number of His^+revertants/plate” value ([4]; TA97 −S, 100 μg/plate) was 150 ± 16 revertants/plate. The “reversibility of toxicities observed” value [5] was “completely reversible upon discontinuation of treatment”.

Reference: patent US20070166415A1, “Safe medicine for treating and preventing cancer and method of use” (priority 2006, published 2007)
